Assay results as given in patent publication US20080039438A1, “1B-Methylcarbapenem Derivative and Process for the Preparation Thereof” (Korea Institute of Science and Technology, priority 2004, published 2008).
≈ marks a conversion by molar mass, not a printed value.

How the values were obtained:
Assay type in all cases: cell-based
[1] = tested on: Citrobacter freundii; experiment: MIC against clinically isolated aerobic Gram-negative strains; conditions: 14 strains
[2] = tested on: Escherichia coli; experiment: as above; conditions: 30 strains
[3] = tested on: Enterobacter cloacae; experiment: as above; conditions: 29 strains
[4] = tested on: Haemophilus influenzae; experiment: as above; conditions: 24 strains
[5] = tested on: Proteus vulgaris; experiment: as above; conditions: 15 strains
[6] = tested on: Klebsiella oxytoca; experiment: as above; conditions: 15 strains
[7] = tested on: Morganella morganii; experiment: as above; conditions: 15 strains
[8] = tested on: Bacteroides fragilis; experiment: MIC against clinically isolated anaerobic Gram-negative strains; conditions: 34 strains
[9] = tested on: Serratia marcescens; experiment: MIC against clinically isolated aerobic Gram-negative strains; conditions: 14 strains
[10] = tested on: Streptococcus pneumoniae; experiment: MIC against clinically isolated aerobic Gram-positive strains; conditions: 22 strains
[11] = tested on: Bacteroides spp.; experiment: MIC against clinically isolated anaerobic Gram-negative strains; conditions: 11 strains
[12] = tested on: Providentia sp.; experiment: MIC against clinically isolated aerobic Gram-negative strains; conditions: 13 strains
[13] = tested on: Methicillin-sensitive Staphylococcus aureus; experiment: MIC against clinically isolated aerobic Gram-positive strains; conditions: 33 strains
[14] = tested on: Enterobacter aerogenes; experiment: MIC against clinically isolated aerobic Gram-negative strains; conditions: 14 strains
[15] = tested on: Acinetobacter baumannii; experiment: as above; conditions: 30 strains
[16] = tested on: Streptococcus pyogenes; experiment: MIC against clinically isolated aerobic Gram-positive strains; conditions: 15 strains
[17] = tested on: Pseudomonas aeruginosa; experiment: MIC against clinically isolated aerobic Gram-negative strains; conditions: 60 strains
[18] = tested on: Staphylococcus coagulase; experiment: MIC against clinically isolated aerobic Gram-positive strains; conditions: Staphylococcus
[19] = tested on: Enterococcus faecium; experiment: as above; conditions: clinically isolated Enterococcus faecium, 29 strains
[20] = tested on: Peptostreptococcus spp.; experiment: MIC against clinically isolated anaerobic Gram-positive strains; conditions: 27 strains
[21] = tested on: Bacteroides thetaiotaomicron; experiment: MIC against clinically isolated anaerobic Gram-negative strains
[22] = tested on: Streptococcus agalactiae; experiment: MIC against clinically isolated aerobic Gram-positive strains; conditions: 15 strains
[23] = tested on: Clostridium perfringens; experiment: microbe, parasite or virus in culture
[24] = tested on: Enterococcus faecalis; experiment: MIC against clinically isolated aerobic Gram-positive strains; conditions: 30 strains
[25] = tested on: Klebsiella pneumoniae; experiment: MIC against clinically isolated aerobic Gram-negative strains; conditions: 30 strains
[26] = tested on: Proteus mirabilis; experiment: as above; conditions: 15 strains
[27] = tested on: Clostridium difficile; experiment: MIC against clinically isolated anaerobic Gram-positive strains; conditions: 15 strains
Protocol: The in vitro antibacterial activities of the sodium 3-carboxylate compound of the present invention prepared in the above Example were measured against standard strains (Table 1), clinically isolated aerobic Gram-positive strains (Table 2), clinically isolated aerobic Gram-negative strains (Table 3), clinically isolated anaerobic Gram-positive strains (Table 4) and clinically isolated anaerobic Gram-negative strains (Table 5) using Gram-positive bacteria such as Streptococcus and Staphylococcus, Gram-negative bacteria such as Escherichia, Salmonella, Krebsiella and Enterobacter. Imipenem (IPM), meropenem (MPM) and ertapenem (EPM) were used as control groups.
The results are shown in Tables 1 to 5, and MIC50 and MIC90 represent the concentrations at which the test strain's growth was inhibited to the extents of 50% and 90%, respectively.

[28] = tested on: Moraxella catarrhalis; experiment: MIC against clinically isolated aerobic Gram-negative strains; conditions: 24 strains

In the case of `C[C@@H](O)[C@H]1C(=O)N2C(C(=O)O)=C(S[C@@H]3CN[C@H](C(=O)Nc4cccc(C(=O)O)c4)C3)[C@H](C)[C@H]12` [EPM, ertapenem], the MIC50 [1] is reported as 0.008 µg/mL (≈ 0.0168 µM), the MIC90 [1] is reported as 0.25 µg/mL (≈ 0.526 µM) and the “MIC Range” value [1] is reported as 0.008 to 0.5 µg/mL. For the same compound, the MIC50 [2] was 0.008 µg/mL (≈ 0.0168 µM), the MIC90 [2] was 0.12 µg/mL (≈ 0.252 µM) and the “MIC Range” value [2] was 0.008 to 4 µg/mL. For the same compound, the MIC50 [3] was 0.12 µg/mL (≈ 0.252 µM), the MIC90 [3] was 2 µg/mL (≈ 4.21 µM) and the “MIC Range” value [3] was 0.015 to 2 µg/mL. For the same compound, the MIC50 [4] was 0.12 µg/mL (≈ 0.252 µM), the MIC90 [4] was 0.5 µg/mL (≈ 1.05 µM) and the “MIC Range” value [4] was 0.12 to 1 µg/mL. The MIC50 [5] was 0.015 µg/mL (≈ 0.0315 µM), the MIC90 [5] was 0.015 µg/mL (≈ 0.0315 µM) and the “MIC Range” value [5] was 0.008 to 0.03 µg/mL. For the same compound, the MIC50 [6] was 0.008 µg/mL (≈ 0.0168 µM), the MIC90 [6] was 0.008 µg/mL (≈ 0.0168 µM) and the “MIC Range” value [6] was 0.008 to 0.25 µg/mL. For the same compound, the MIC50 [7] was 0.008 µg/mL (≈ 0.0168 µM), the MIC90 [7] was 0.03 µg/mL (≈ 0.0631 µM) and the “MIC Range” value [7] was 0.008 to 0.03 µg/mL. For the same compound, the MIC50 [8] was 0.25 µg/mL (≈ 0.526 µM), the MIC90 [8] was 1 µg/mL (≈ 2.1 µM) and the “MIC Range” value [8] was 0.12 to 4 µg/mL. The MIC50 [9] was 0.06 µg/mL (≈ 0.126 µM), the MIC90 [9] was 16 µg/mL (≈ 33.6 µM) and the “MIC Range” value [9] was 0.015 to 16 µg/mL. The MIC50 [10] was 0.5 µg/mL (≈ 1.05 µM), the MIC90 [10] was 1 µg/mL (≈ 2.1 µM) and the “MIC Range” value [10] was 0.008 to 1 µg/mL. For the same compound, the MIC50 [11] was 1 µg/mL (≈ 2.1 µM), the MIC90 [11] was 2 µg/mL (≈ 4.21 µM) and the “MIC Range” value [11] was 0.5 to 2 µg/mL. The MIC50 [12] was 0.03 µg/mL (≈ 0.0631 µM), the MIC90 [12] was 16 µg/mL (≈ 33.6 µM) and the “MIC Range” value [12] was 0.008 to 16 µg/mL. For the same compound, the MIC50 [13] was 0.25 µg/mL (≈ 0.526 µM), the MIC90 [13] was 0.25 µg/mL (≈ 0.526 µM) and the “MIC Range” value [13] was 0.25 to 0.5 µg/mL. For the same compound, the “MIC Range” value [14] was 0.008 to 0.5 µg/mL, the MIC50 ([14]; Klebsiella aerogenes) was 0.06 µg/mL (≈ 0.126 µM) and the MIC90 ([14]; Klebsiella aerogenes) was 0.5 µg/mL (≈ 1.05 µM). For the same compound, the MIC50 [15] was 8 µg/mL (≈ 16.8 µM), the MIC90 [15] was 64 µg/mL (≈ 135 µM) and the “MIC Range” value [15] was 4 to 128 µg/mL. For the same compound, the MIC50 [16] was 0.15 µg/mL (≈ 0.315 µM), the MIC90 [16] was 0.15 µg/mL (≈ 0.315 µM) and the “MIC Range” value [16] was 0.008 to 0.015 µg/mL. For the same compound, the MIC50 [17] was 32 µg/mL (≈ 67.3 µM), the MIC90 [17] was 128 µg/mL (≈ 269 µM) and the “MIC Range” value [17] was 1 to 128 µg/mL. The MIC50 [18] was 0.25 µg/mL (≈ 0.526 µM), the MIC90 [18] was 0.5 µg/mL (≈ 1.05 µM) and the “MIC Range” value [19] was 32 to 128 µg/mL. For the same compound, the MIC50 ([19]; read-out: MIC50) was 128 µg/mL (≈ 269 µM), the MIC90 ([19]; read-out: MIC90) was 128 µg/mL (≈ 269 µM) and the MIC50 [20] was 0.12 µg/mL (≈ 0.252 µM). The MIC90 [20] was 4 µg/mL (≈ 8.41 µM), the “MIC Range” value [20] was 0.06 to 4 µg/mL and the MIC50 ([21]; Bacteroides thetaiotaomicron) was 2 µg/mL (≈ 4.21 µM). The MIC90 ([21]; Bacteroides thetaiotaomicron) was 2 µg/mL (≈ 4.21 µM), the “MIC Range” value ([21]; clinically isolated anaerobic Bacteroides thetaiotaomicron, 15 strains) was 0.25 to 8 µg/mL and the MIC50 [22] was 0.06 µg/mL (≈ 0.126 µM). For the same compound, the MIC90 [22] was 0.06 µg/mL (≈ 0.126 µM), the “MIC Range” value [22] was 0.03 to 0.06 µg/mL and the MIC50 ([23]; Clostridium perfringens) was 0.06 µg/mL (≈ 0.126 µM). For the same compound, the MIC90 ([23]; Clostridium perfringens) was 0.12 µg/mL (≈ 0.252 µM), the “MIC Range” value ([23]; clinically isolated anaerobic Clostridium perfringens, 13 strains) was 0.06 to 0.12 µg/mL and the MIC50 [24] was 16 µg/mL (≈ 33.6 µM). For the same compound, the MIC90 [24] was 32 µg/mL (≈ 67.3 µM), the “MIC Range” value [24] was 4 to 64 µg/mL and the MIC50 [25] was 0.03 µg/mL (≈ 0.0631 µM). The MIC90 [25] was 0.5 µg/mL (≈ 1.05 µM), the “MIC Range” value [25] was 0.008 to 1 µg/mL and the MIC50 [26] was 0.008 µg/mL (≈ 0.0168 µM). The MIC90 [26] was 0.015 µg/mL (≈ 0.0315 µM), the “MIC Range” value [26] was 0.008 to 0.015 µg/mL and the “MIC Range” value [27] was 4 to 8 µg/mL. It also gave an MIC50 ([27]; Clostridioides difficile) of 4 µg/mL (≈ 8.41 µM), an MIC90 ([27]; Clostridioides difficile) of 8 µg/mL (≈ 16.8 µM) and an MIC50 [28] of 0.015 µg/mL (≈ 0.0315 µM). The MIC90 [28] was 0.03 µg/mL (≈ 0.0631 µM) and the “MIC Range” value [28] was 0.008 to 0.12 µg/mL.
